Data from patent US7034035B2, “Fungicidal mono-, bi-, and tri-cycloheteroalkyl amides and their compositions, methods of use and preparation” (priority 1999, dated 2006).
Like-named read-outs stand apart in the source and are kept apart here.

Columns and labels:
Ustilago maydis (USTIMA) = assay: microbe, parasite or virus in culture; type: cell-based
Septoria tritici—SEPTTR = assay: Leaf Blotch of Wheat, in vivo whole plant, 24 Hour Protectant; settings: Zymoseptoria tritici; wheat (cultivar Yuma), sprayed at 100 ppm, inoculated after 24 hours; control of fungal infection vs untreated plants; read-out: SEPTTR in vivo 1 Day Protectant
[1] = system: Rhizoctonia solani (RHIZSO); assay: microbe, parasite or virus in culture; type: cell-based
[2] = system: Leptosphaeria nodorum—LEPTNO; assay: Glume Blotch of Wheat, in vivo whole plant, 24 Hour Protectant; settings: Leptosphaeria, 24 h, wheat (cultivar Yuma), sprayed at 100 ppm, inoculated after 24 hours; control of fungal infection vs untreated plants; read-out: LEPTNO in vivo 1 Day Protectant
[3] = system: Puccinia recondita—PUCCRT; assay: Brown Rust of Wheat, in vivo whole plant, 24 Hour Protectant; settings: Puccinia, inoculated after 24 hours, read-out: PUCCRT in vivo 1 Day Protectant
[4] = wheat (cultivar Yuma), sprayed at 100 ppm, control of fungal infection vs untreated plants

| SMILES | USTIMA in vitro Growth Inhibition (Ustilago maydis (USTIMA)) | pest or weed control at 100 ppm (Septoria tritici—SEPTTR) | RHIZSO in vitro Growth Inhibition [1] | pest or weed control at 100 ppm [2] | pest or weed control at 100 ppm [3, 4] | pest or weed control at 100 ppm ([3]; wheat plants sprayed at 100 ppm, control vs untreated plants) |
| --- | --- | --- | --- | --- | --- | --- |
| COc1ccnc(C(=O)NC2CC(C)(C)/C=C\CC(C)(C)C2)c1O (stereo not shown) [Compound 283] | − (key: +: at least 80% growth inhibition; −: less than 80% growth inhibition) | 75 to 100% | − (key: +: at least 80% growth inhibition; −: less than 80% growth inhibition) | – | – | – |
| COc1ccnc(C(=O)N[C@@H]2CC3CC2c2ccccc23)c1O (stereo partly shown) [Compound 290] | − (key: +: at least 80% growth inhibition; −: less than 80% growth inhibition) | – | + (key: +: at least 80% growth inhibition; −: less than 80% growth inhibition) | 75 to 100% | 75 to 100% | – |
| COc1ccnc(C(=O)N[C@H]2CO[C@@H](C(C)Cc3ccc(C(C)(C)C)cc3)OC2)c1O (stereo partly shown) [Compound 317] | − (key: +: at least 80% growth inhibition; −: less than 80% growth inhibition) | – | − (key: +: at least 80% growth inhibition; −: less than 80% growth inhibition) | – | 75 to 100% | – |
| COc1ccnc(C(=O)NC2CC(C)(C)CC(C)(COCC(Cl)CCl)C2)c1O (stereo not shown) [Compound 257] | + (key: +: at least 80% growth inhibition; −: less than 80% growth inhibition) | – | − (key: +: at least 80% growth inhibition; −: less than 80% growth inhibition) | 75 to 100% | – | – |
| COc1ccnc(C(=O)N[C@@H](Cc2ccc(OCc3ccccc3)cc2)C(=O)O)c1O [Compound 337] | − (key: +: at least 80% growth inhibition; −: less than 80% growth inhibition) | – | − (key: +: at least 80% growth inhibition; −: less than 80% growth inhibition) | 75 to 100% | – | – |
| COc1ccnc(C(=O)N[C@H]2CO[C@](C)(C(C)CC3=C(C)CCCC3(C)C)OC2)c1O (stereo partly shown) [Compound 319] | − (key: +: at least 80% growth inhibition; −: less than 80% growth inhibition) | – | − (key: +: at least 80% growth inhibition; −: less than 80% growth inhibition) | – | 75 to 100% | – |
| COc1ccnc(C(=O)N[C@H]2CC3CC2[C@@H](COCc2cccc(C(F)(F)F)c2)C3)c1O (stereo partly shown) [Compound 295] | − (key: +: at least 80% growth inhibition; −: less than 80% growth inhibition) | 75 to 100% | + (key: +: at least 80% growth inhibition; −: less than 80% growth inhibition) | – | – | – |
| COc1ccnc(C(=O)NC2CC(C)(C)C(Oc3cc(C(F)(F)F)cc(C(F)(F)F)n3)C(C)(C)C2)c1O (stereo not shown) [Compound 272] | − (key: +: at least 80% growth inhibition; −: less than 80% growth inhibition) | 75 to 100% | − (key: +: at least 80% growth inhibition; −: less than 80% growth inhibition) | – | – | – |
| COC(=O)C(COC(=O)C(COC(=O)C(C)C)Cc1ccccc1)NC(=O)c1nccc(OC)c1O (stereo not shown) [Compound 349] | – | – | – | – | 75 to 100% | – |
| COc1ccnc(C(=O)NC2CCCC(Sc3ccc(C(F)(F)F)cn3)C2)c1O (stereo not shown) [Compound 274] | − (key: +: at least 80% growth inhibition; −: less than 80% growth inhibition) | – | + (key: +: at least 80% growth inhibition; −: less than 80% growth inhibition) | 75 to 100% | 75 to 100% | – |
| COc1ccnc(C(=O)NCC#Cc2ccccc2)c1O [Compound 240] | − (key: +: at least 80% growth inhibition; −: less than 80% growth inhibition) | 75 to 100% | − (key: +: at least 80% growth inhibition; −: less than 80% growth inhibition) | – | – | – |
| COc1ccnc(C(=O)N[C@H]2CC3CC2[C@H](COCc2cccc(C(F)(F)F)c2)C3)c1O (stereo partly shown) [Compound 294] | − (key: +: at least 80% growth inhibition; −: less than 80% growth inhibition) | – | + (key: +: at least 80% growth inhibition; −: less than 80% growth inhibition) | 75 to 100% | – | – |
| COc1ccnc(C(=O)N[C@H]2CC[C@H](Oc3ccc(C(F)(F)F)cc3)CC2)c1O [Compound 270] | + (key: +: at least 80% growth inhibition; −: less than 80% growth inhibition) | – | + (key: +: at least 80% growth inhibition; −: less than 80% growth inhibition) | 75 to 100% | – | – |
| O=C(Nc1ccc(Cl)cc1)c1ncccc1O [Compound 213] | − (key: +: at least 80% growth inhibition; −: less than 80% growth inhibition) | – | − (key: +: at least 80% growth inhibition; −: less than 80% growth inhibition) | – | 75 to 100% | – |
| COc1ccnc(C(=O)NC(COC(=O)CC(C)O[Si](C)(C)C(C)(C)C)C(=O)OC(C)C)c1O (stereo not shown) [Compound 354] | – | – | – | – | 75 to 100% | – |
| COc1ccnc(C(=O)NC(COC(=O)CC(C)OC(=O)CCc2ccccc2)C(=O)OC(C)C)c1O (stereo not shown) [Compound 353] | – | – | – | – | 75 to 100% | – |
| COc1ccnc(C(=O)N[C@H](C(=O)O[C@@H](C)[C@H](OC(=O)C(C)C)[C@@H](Cc2ccccc2)C(=O)OCc2ccccc2)[C@@H](C)OC(C)=O)c1O [Compound 361] | – | – | – | – | 75 to 100% | – |
| COc1ccnc(C(=O)NC2CC(C)(C)CCCC2C)c1O (stereo not shown) [Compound 277] | − (key: +: at least 80% growth inhibition; −: less than 80% growth inhibition) | 75 to 100% | − (key: +: at least 80% growth inhibition; −: less than 80% growth inhibition) | – | – | – |
| COc1ccnc(C(=O)NC(COC(=O)C(Cc2ccccc2)C(C)O[Si](C)(C)C(C)(C)C)C(=O)OC(C)C)c1O (stereo not shown) [Compound 357] | – | – | – | – | 75 to 100% | – |
| COc1ccnc(C(=O)NC2CC(C)(C)CC3(C2)CC3(F)F)c1O (stereo not shown) [Compound 255] | − (key: +: at least 80% growth inhibition; −: less than 80% growth inhibition) | – | − (key: +: at least 80% growth inhibition; −: less than 80% growth inhibition) | 75 to 100% | – | – |
| COc1ccnc(C(=O)NC2C3CC4C(C3Cl)C42)c1O (stereo not shown) [Compound 304] | − (key: +: at least 80% growth inhibition; −: less than 80% growth inhibition) | 75 to 100% | + (key: +: at least 80% growth inhibition; −: less than 80% growth inhibition) | – | – | – |
| COc1ccnc(C(=O)Nc2cccc(Oc3ccc(C(F)(F)F)cc3)n2)c1O [Compound 469] | – | – | – | – | – | 75 to 100% |
| COc1ccnc(C(=O)NC(C)c2ccc(Cl)cc2)c1O (stereo not shown) [Compound 246] | − (key: +: at least 80% growth inhibition; −: less than 80% growth inhibition) | – | − (key: +: at least 80% growth inhibition; −: less than 80% growth inhibition) | 75 to 100% | – | – |
| COc1ccnc(C(=O)N[C@@H](COCc2ccccc2)C(=O)O[C@@H](C)[C@H](OC(=O)C(C)C)[C@@H](Cc2ccccc2)C(=O)OCc2ccccc2)c1O [Compound 342] | – | – | – | – | 75 to 100% | – |
| COc1ccnc(C(=O)N[C@H]2CO[C@H](C(C)Cc3ccc(C(C)(C)C)cc3)OC2)c1O (stereo partly shown) [Compound 316] | + (key: +: at least 80% growth inhibition; −: less than 80% growth inhibition) | – | − (key: +: at least 80% growth inhibition; −: less than 80% growth inhibition) | – | 75 to 100% | – |
| COc1ccnc(C(=O)NC(COC(=O)C(C)Cc2ccccc2)C(=O)OC(C)C)c1O (stereo not shown) [Compound 351] | – | – | – | – | 75 to 100% | – |
